Results taken from patent US12070489B2, “Method of treating cancer with a cancer therapy in combination with another therapeutic agent” (Rappaport Family Institute for Research in the Medical …, priority 2018, dated 2024).

Tests used:
IL-6 = IL-6 quantification in plasma by ELISA after DOX; assay type: in vivo; details: naive female BALB/c mice, 240 μg DOX IP, one day after injection
Protocol: For determination of IL-6 expression following DOX treatment, 7 weeks old naïve female BALB/c mice (n=3) were IP injected with 240 μg DOX. Control mice (n=3) were left untreated. One day after the injection, mice were bled by cardiac puncture and blood was collected into EDTA-coated tubes. […] Supernatants (representing the plasma samples) were collected and the level of IL-6 in the plasma was determined by ELISA (IL-6 Quantikine ELISA Kit, R&D systems) according to the manufacturer's instruction.
To investigate the effect of chemotherapy on the level of IL-6 in the circulation, naïve 7-weeks old female BALB/c mice were IP injected with 240 μg DOX (doxorubicin, Adriamycin™) or were left untreated (control mice). One day after the injection, the level of IL-6 in the plasma was determined by ELISA.

circulating factors = experiment: Mouse L308 Array screen of plasma from naive mice treated with FOLFOX or Paclitaxel chemotherapy; assay type: in vivo; details: circulating level, BALB/c mice
Protocol: Determination of proteins expression using protein arrays was performed according to the manufacturer's instructions.
To identify host-derived circulating factors whose levels change in response to chemotherapy, a protein array-based screens were performed using plasma from naïve (non-tumor bearing) mice that were treated with different chemotherapy types. The use of naïve mice allows identification of factors specifically generated by the host in response to chemotherapy, independent of tumor presence. […] Control mice (n=5) were injected with vehicle control. Twenty-four hours after treatment administration, mice were sacrificed, plasma was isolated and pooled per group. […] These factors, and their respective fold changes in response to each chemotherapy type (Paclitaxel™, FOLFOX™), are listed in Table 5.

Compound: COc1cccc2c1C(=O)c1c(O)c3c(c(O)c1C2=O)C[C@@](O)(C(=O)CO)C[C@@H]3O[C@H]1C[C@H](N)[C@H](O)[C@H](C)O1 [DOX, doxorubicin]
- increase of plasma level of IL-6 compared to control (IL-6): 22 fold

Compound: CC(=O)O[C@H]1C(=O)[C@@]2(C)[C@H]([C@H](OC(=O)c3ccccc3)[C@]3(O)C[C@H](OC(=O)[C@H](O)[C@@H](NC(=O)c4ccccc4)c4ccccc4)C(C)=C1C3(C)C)[C@]1(OC(C)=O)CO[C@@H]1C[C@@H]2O [Paclitaxel, paclitaxel]
- Fold change CRG-2 (chemotherapy-treated vs control) (circulating factors): >10 fold
- Fold change CRP (chemotherapy-treated vs control) (circulating factors): >10 fold
- Fold change CXCL14/BRAK (chemotherapy-treated vs control) (circulating factors): 2.6 fold
- Fold change CXCL16 (chemotherapy-treated vs control) (circulating factors): 4.4 fold
- Fold change CXCR2/IL-8 RB (chemotherapy-treated vs control) (circulating factors): 2.0 fold
- Fold change CXCR6 (chemotherapy-treated vs control) (circulating factors): 3.6 fold
- Fold change Cardiotrophin-1 (chemotherapy-treated vs control) (circulating factors): >10 fold
- Fold change Cripto (chemotherapy-treated vs control) (circulating factors): >10 fold
- Fold change Dkk-3 (chemotherapy-treated vs control) (circulating factors): >10 fold
- Fold change Endocan (chemotherapy-treated vs control) (circulating factors): 4.4 fold
- Fold change Endostatin (chemotherapy-treated vs control) (circulating factors): 4.9 fold
- Fold change Eotaxin-2 (chemotherapy-treated vs control) (circulating factors): 3.4 fold
- Fold change Erythropoietin (EPO) (chemotherapy-treated vs control) (circulating factors): 3.9 fold
- Fold change Frizzled-6 (chemotherapy-treated vs control) (circulating factors): 2.2 fold
- Fold change Frizzled-7 (chemotherapy-treated vs control) (circulating factors): 6.1 fold
- Fold change GITR (chemotherapy-treated vs control) (circulating factors): >10 fold
- Fold change GM-CSF (chemotherapy-treated vs control) (circulating factors): 2.4 fold
- Fold change IGFBP-1 (chemotherapy-treated vs control) (circulating factors): >10 fold
- Fold change IL-1 R4/ST2 (chemotherapy-treated vs control) (circulating factors): 1.9 fold
- Fold change IL-1 alpha (chemotherapy-treated vs control) (circulating factors): >10 fold
- Fold change IL-3 R alpha (chemotherapy-treated vs control) (circulating factors): >10 fold
- Fold change IL-7 R alpha (chemotherapy-treated vs control) (circulating factors): 8.8 fold
- Fold change IL-9 R (chemotherapy-treated vs control) (circulating factors): 5.7 fold
- Fold change IL-12 p70 (chemotherapy-treated vs control) (circulating factors): >10 fold
- Fold change IL-15 (chemotherapy-treated vs control) (circulating factors): 2.5 fold
- Fold change IL-15 R alpha (chemotherapy-treated vs control) (circulating factors): 3.4 fold
- Fold change IL-17R (chemotherapy-treated vs control) (circulating factors): 2.6 fold
- Fold change IL-18 R alpha/IL-1 R5 (chemotherapy-treated vs control) (circulating factors): >10 fold
- Fold change IL-20 (chemotherapy-treated vs control) (circulating factors): >10 fold
- Fold change IL-23 R (chemotherapy-treated vs control) (circulating factors): 1.8 fold
- Fold change IL-27 (chemotherapy-treated vs control) (circulating factors): 2.0 fold
- Fold change IL-28/IFN-lambda (chemotherapy-treated vs control) (circulating factors): 5.4 fold
- Fold change IL-31 (chemotherapy-treated vs control) (circulating factors): >10 fold
- Fold change LIF (chemotherapy-treated vs control) (circulating factors): >10 fold
- Fold change LIX (chemotherapy-treated vs control) (circulating factors): >10 fold
- Fold change LRP-6 (chemotherapy-treated vs control) (circulating factors): >10 fold
- Fold change Lungkine (chemotherapy-treated vs control) (circulating factors): 2.0 fold
- Fold change Lymphotoxin beta R/TNFRSF3 (chemotherapy-treated vs control) (circulating factors): 1.6 fold
- Fold change M-CSF (chemotherapy-treated vs control) (circulating factors): 1.8 fold
- Fold change MAdCAM-1 (chemotherapy-treated vs control) (circulating factors): >10 fold
- Fold change MCP-1 (chemotherapy-treated vs control) (circulating factors): >10 fold
- Fold change MIP-1 gamma (chemotherapy-treated vs control) (circulating factors): >10 fold
- Fold change MIP-2 (chemotherapy-treated vs control) (circulating factors): 3.1 fold
- Fold change MMP-9 (chemotherapy-treated vs control) (circulating factors): 4.3 fold
- Fold change P-Selectin (chemotherapy-treated vs control) (circulating factors): >10 fold
- Fold change PF-4 (chemotherapy-treated vs control) (circulating factors): 3.6 fold
- Fold change Prolactin (chemotherapy-treated vs control) (circulating factors): 4.1 fold
- Fold change SDF-1 (chemotherapy-treated vs control) (circulating factors): >10 fold
- Fold change Soggy-1 (chemotherapy-treated vs control) (circulating factors): 3.6 fold
- Fold change TACI/TNFRSF13B (chemotherapy-treated vs control) (circulating factors): >10 fold
- Fold change TARC (chemotherapy-treated vs control) (circulating factors): >10 fold
- Fold change TCA-3 (chemotherapy-treated vs control) (circulating factors): 3.0 fold
- Fold change TGF-beta 2 (chemotherapy-treated vs control) (circulating factors): 3.4 fold
- Fold change TGF-beta RII (chemotherapy-treated vs control) (circulating factors): 2.2 fold
- Fold change TNF-alpha (chemotherapy-treated vs control) (circulating factors): 2.8 fold
- Fold change TNF-beta/TNFSF1B (chemotherapy-treated vs control) (circulating factors): 2.9 fold
- Fold change TPO (chemotherapy-treated vs control) (circulating factors): >10 fold
- Fold change TWEAK R/TNFRSF12 (chemotherapy-treated vs control) (circulating factors): >10 fold
- Fold change Thrombospondin (chemotherapy-treated vs control) (circulating factors): >10 fold
- Fold change Thymus Chemokine-1 (chemotherapy-treated vs control) (circulating factors): >10 fold
- Fold change VEGFC (chemotherapy-treated vs control) (circulating factors): >10 fold
- Fold change WISP-1/CCN4 (chemotherapy-treated vs control) (circulating factors): 3.7 fold
